Experimental data from US20070225330A1, “USE OF CERTAIN PHENYL-NAPHTHYL COMPOUNDS THAT DO NOT HAVE SIGNIFICANT AFFINITY TO ER ALPHA OR ER BETA FOR PROTECTION OF NEURONS AND OLIGODENDROCYTES IN THE TREATMENT OF MULTIPLE SCLEROSIS” (AVENTIS PHARMACEUTICALS INC., priority 2004, published 2007).

Experiments:
[1] = test system: Primary rat oligodendrocyte progenitor cells; assay: Oligodendrocyte toxicity assay (LDH release, protection against toxin-induced toxicity); format: cell-based; settings: compound pretreatment 1 hour, LDH after 24 hours; for Oligodendrocyte progenitor protection against Camptothecin: Camptothecin 10 μM; for Oligodendrocyte progenitor protection against SIN-1: SIN-1 10 mM
Description: Oligodendrocyte Toxicity Assay
Primary rat oligodendrocyte progenitor cells were obtained from the cerebra of 2-3 day old postnatal rats (Sprague Dawley). The meninges were removed and tissue was mechanically dissociated. Cells were plated on T75 flasks and fed with DMEM+10% FBS.
Enriched OLPs were collected by mechanical separation from the astrocytic monolayer and were expanded in serum free media (SFM) supplemented with the mitogens, PDGF-AA (10 ng/ml) and FGF-2 (10 ng/ml).
To generate mature oligodendrocytes, progenitor cells were switched to SFM supplemented with IGF-1 (10 ng/ml) 24 hours after plating and cells were grown under these conditions for 7 days prior to experimental assays.
Cells were plated in 96-well plates, 10,000 per well. Medium was changed to fresh medium and cells were pretreated with compounds for 1 hour. Toxins were added to give the following final concentrations:
After 24 hours, medium was removed and assayed for LDH activity using the Promega cytotox 96 kit (catalog #G1780). Results were calculated as percent protection against toxin-induced toxicity.

[2] = molecular target: T1, ER α (Homo sapiens, UniProt P03372); assay: Affinity for ER receptors (α); format: binding; settings: unit not given
T1 sequence (P03372 1-595): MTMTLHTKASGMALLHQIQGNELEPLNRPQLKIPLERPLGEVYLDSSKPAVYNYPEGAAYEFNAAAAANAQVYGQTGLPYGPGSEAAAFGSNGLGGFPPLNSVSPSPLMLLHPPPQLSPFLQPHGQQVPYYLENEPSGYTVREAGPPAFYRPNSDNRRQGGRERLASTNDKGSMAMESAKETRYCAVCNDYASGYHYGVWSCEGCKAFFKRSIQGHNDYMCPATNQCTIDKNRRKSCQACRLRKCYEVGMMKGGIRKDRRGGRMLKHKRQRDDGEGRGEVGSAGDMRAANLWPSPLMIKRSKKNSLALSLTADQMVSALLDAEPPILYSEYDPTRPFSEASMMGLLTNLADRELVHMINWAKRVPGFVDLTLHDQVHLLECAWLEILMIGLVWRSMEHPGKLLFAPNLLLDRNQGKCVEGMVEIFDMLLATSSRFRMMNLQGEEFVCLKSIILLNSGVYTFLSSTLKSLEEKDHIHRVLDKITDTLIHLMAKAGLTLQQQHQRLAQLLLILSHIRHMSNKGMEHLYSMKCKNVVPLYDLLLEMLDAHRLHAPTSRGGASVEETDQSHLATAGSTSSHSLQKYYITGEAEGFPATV

[3] = molecular target: ER β (Homo sapiens, UniProt Q92731); assay: Affinity for ER receptors (β); format: binding; settings: unit not given
ER β, sequence (Q92731 whole entry): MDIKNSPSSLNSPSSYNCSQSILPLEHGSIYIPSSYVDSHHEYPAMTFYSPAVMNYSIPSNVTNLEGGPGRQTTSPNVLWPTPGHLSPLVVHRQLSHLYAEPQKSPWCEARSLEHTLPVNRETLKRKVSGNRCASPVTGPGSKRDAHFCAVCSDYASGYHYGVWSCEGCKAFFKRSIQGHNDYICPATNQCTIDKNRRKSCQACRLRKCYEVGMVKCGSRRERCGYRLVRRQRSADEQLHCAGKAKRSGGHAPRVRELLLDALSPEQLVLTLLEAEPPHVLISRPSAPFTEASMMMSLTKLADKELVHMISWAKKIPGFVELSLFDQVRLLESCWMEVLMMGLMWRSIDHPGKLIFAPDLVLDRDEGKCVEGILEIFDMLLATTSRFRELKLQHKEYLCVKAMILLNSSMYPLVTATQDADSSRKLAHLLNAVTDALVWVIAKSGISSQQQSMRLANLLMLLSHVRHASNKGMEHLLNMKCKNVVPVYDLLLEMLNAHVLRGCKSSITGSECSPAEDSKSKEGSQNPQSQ

| Affinity for ER receptors* α [2] | Affinity for ER receptors* β [3] | Compound | Oligodendrocyte progenitor protection against Camptothecin [1] | Oligodendrocyte progenitor protection against SIN-1 [1] |
| --- | --- | --- | --- | --- |
|  |  | COc1ccc(-c2sc3cc(O)ccc3c2Oc2ccc(OCCN3CCCCC3)cc2)cc1 [Compound 10, Arzoxifen] | Very effective | Very effective |
| 408 | 14.7 | Oc1ccc(-c2ccc3cc(O)ccc3c2)cc1 [Compound 7, 6-(4-Hydroxy-phenyl)-2-naphthalenol] | Effective | Effective |
| 35.4 | 3 | Oc1ccc(-c2ccc3cc(O)ccc3c2Cl)cc1 [Compound 4, 5-chloro-6-(4-hydroxyphenyl)-2-naphthalenol] | Effective | Effective |

| Compound | Affinity for ER receptors* α [2] | Affinity for ER receptors* β [3] | Oligodendrocyte progenitor protection against Camptothecin [1] | Oligodendrocyte progenitor protection against SIN-1 [1] |
| --- | --- | --- | --- | --- |
| C[C@@]12CCc3cc(O)ccc3[C@H]1CC[C@@]1(C)[C@H]2CC[C@@H]1O [Compound 11, Estrogen] | 1.17 | 6.1 | Effective | Effective |
